A short description of this series: Solubility in hydrocarbon solvents (pentane or hexane), observed in Soxhlet extraction. The class given is physicochemical. Particulars: boiling pentane or hexane. The source says: In an alternative process, Soxhlet extraction of mono- and dihydroxycarotenoids can also be carried out to separate these carotenoids. As mentioned earlier, esterified forms of lutein and zeaxanthin are well solubilized in hydrocarbon solvents such as n-hexane and n-pentane, whereas their unesterified parent compounds, […], show a remarkable difference in their solubility behavior and remain insoluble. In fact, […] are considerably more soluble in n-pentane or n-hexane than lutein and zeaxanthin.
Similarly, a mixture of zeaxanthin and β-cryptoxanthin can be separated by Soxhlet extraction with n-pentane or n-hexane due to their differential solubility in hydrocarbon solvents.
100 mg of 1:1 mixture of (3R)-β-cryptoxanthin (13) and (3R,3′R)-zeaxanthin (5) was subjected to Soxhlet extraction and these unesterified carotenoids were extracted with boiling pentane (b.p.=36° C.) or hexane (b.p.=69° C.). […] After 4 hours, the composition of the extract was: (3R)-β-cryptoxanthin (13) (85%) and (3R,3′R)-zeaxanthin (5) (15%). In a subsequent Soxhlet extraction with pentane or hexane, (3R)-β-cryptoxanthin (13) was obtained in 98% purity.

Consider `CC1=C(/C=C/C(C)=C/C=C/C(C)=C/C=C/C=C(C)/C=C/C=C(C)/C=C/C2=C(C)C[C@@H](O)CC2(C)C)C(C)(C)CCC1` [compound 13, (3R)-β-cryptoxanthin], for which the “solubility in hydrocarbon solvents” value is listed as “significantly better solubility”.
Regarding `CC(C=CC=C(C)C=CC1=C(C)CC(O)CC1(C)C)=CC=CC=C(C)C=CC=C(C)C=CC1C(C)=CCCC1(C)C` [compound 9, (3R,6′R)-α-cryptoxanthin], the “solubility in hydrocarbon solvents” value is given as “much greater solubility than lutein”.
On to `CC1=C(/C=C/C(C)=C/C=C/C(C)=C/C=C/C=C(C)/C=C/C=C(C)/C=C/C2=C(C)C[C@@H](O)CC2(C)C)C(C)(C)C[C@H](O)C1` [compound 5, (3R,3′R)-zeaxanthin], for which the “solubility in hydrocarbon solvents” value was “only sparingly soluble”.

Values taken from patent publication US20160122268A1, “PROCESS FOR SIMULTANEOUS EXTRACTION AND SEPARATION OF ESTERIFIED AND UNESTERIFIED MONOHYDROXYCAROTENOIDS” (UNIVERSITY OF MARYLAND, COLLEGE PARK, priority 2013, published 2016).
